≈ marks a conversion by molar mass, not a printed value.
Legend:
Assay in all cases: in vitro antibacterial evaluation, MIC by broth dilution
Type in all cases: cell-based
Enterococcus sp. = settings: broth dilution, 18 hours at 35° C.
How it was run: (§1)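 MIC = lowest antibiotic concentration preventing visible growth; inoculum 5×10^5 CFU/mL; drug range 64-0.06 μg/mL; Muller-Hinton II […]; NCCLS M7-A2 guidance.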

Staphylococcus sp. = settings: broth dilution, 18 hours at 35° C.
How it was run: as §1

Streptococcus sp. = settings: broth dilution, 18 hours at 35° C.
How it was run: as §1

Escherichia coli = settings: 18 hours at 35° C.
How it was run: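 Broth dilution MIC per NCCLS M7-A2 in Mueller-Hinton II medium, inoculum 5×10^5 CFU/mL, antibiotic range 64-0.06 μg/mL. MIC taken as lowest concentration inhibiting growth.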

## CC(c1ccccc1)C1NC(=O)CNC(=O)C(CO)NC(=O)C(C(O)C2CN(c3nc4ccccc4s3)C(=N)N2C2OC(CO)C(O)C(O)C2O)NC(=O)C(C(O)C2CNC(=Nc3nc4ccccc4s3)N2)NC(=O)C(Cc2ccc(OC3OC(CO)C(OC4OC(CO)C(O)C(O)C4O)C(O)C3O)cc2)NC1=O (stereo not drawn) [Example 94, Cyclo[glycyl-β-methylphenylalanyl-O-(4-O-hexopyranosylhexopyranosyl)tyrosyl-3-[2-(1,3-benzothiazol-2-ylimino)imidazolidin-4-yl]seryl-3-[1-(1,3-benzo-thiazol-2-yl)-2-imino-3-hexopyranosylimidazolidin-4-yl]serylseryl]]
Enterococcus sp.; Enterococcus avium (GC 4558)
  MIC Enterococcus avium (GC 4558): >64 µg/mL
Enterococcus sp.; Enterococcus faecalis (ATCC 29212)
  MIC Enterococcus faecalis (ATCC 29212): >64 µg/mL
Enterococcus sp.; Enterococcus faecalis (GC 4552)
  MIC Enterococcus faecalis (GC 4552): >64 µg/mL
Enterococcus sp.; Enterococcus faecalis (GC 4553)
  MIC Enterococcus faecalis (GC 4553): >64 µg/mL
Enterococcus sp.; Enterococcus faecalis (GC 4554)
  MIC Enterococcus faecalis (GC 4554): >64 µg/mL
Enterococcus sp.; Enterococcus faecalis (GC 6189)
  MIC Enterococcus faecalis (GC 6189): >64 µg/mL
Enterococcus sp.; Enterococcus faecium (GC 2243)
  MIC Enterococcus faecium (GC 2243): >64 µg/mL
Enterococcus sp.; Enterococcus faecium (GC 4556)
  MIC Enterococcus faecium (GC 4556): >64 µg/mL
Enterococcus sp.; Enterococcus faecium (GC 4557)
  MIC Enterococcus faecium (GC 4557): >64 µg/mL
Enterococcus sp.
  MIC Enterococcus avium (GC 4558): >64 µg/mL
  MIC Enterococcus faecalis (ATCC 29212): >64 µg/mL
  MIC Enterococcus faecalis (GC 2242): >64 µg/mL
  MIC Enterococcus faecalis (GC 2691): >64 µg/mL
  MIC Enterococcus faecalis (GC 3059): >64 µg/mL
  MIC Enterococcus faecalis (GC 4552): >64 µg/mL
  MIC Enterococcus faecalis (GC 4553): >64 µg/mL
  MIC Enterococcus faecalis (GC 4554): >64 µg/mL
  MIC Enterococcus faecalis (GC 6189): >64 µg/mL
  MIC Enterococcus faecium (GC 2243): >64 µg/mL
  MIC Enterococcus faecium (GC 4556): >64 µg/mL
  MIC Enterococcus faecium (GC 4557): >64 µg/mL
Enterococcus sp.; strain GC 2242
  MIC Enterococcus faecalis (GC 2242): >64 µg/mL
Enterococcus sp.; strain GC 2691
  MIC Enterococcus faecalis (GC 2691): >64 µg/mL
Enterococcus sp.; strain GC 3059
  MIC Enterococcus faecalis (GC 3059): >64 µg/mL
Staphylococcus sp.
  MIC Coagulase Negative Staphylococcus (GC 4547): >64 µg/mL
  MIC Coagulase Negative Staphylococcus (GC 4548): >64 µg/mL
  MIC Coagulase Negative Staphylococcus (GC 4549): >64 µg/mL
  MIC Coagulase Negative Staphylococcus (GC 4551): >64 µg/mL
  MIC Staphylococcus aureus-SMITH (GC 4543): >64 µg/mL
  MIC Staphylococcus haemolyticus (GC 4546): >64 µg/mL
Staphylococcus sp.; strain ATCC 29213
  MIC Staphylococcus aureus (ATCC 29213): >64 µg/mL
Staphylococcus sp.; strain GC 1131
  MIC Staphylococcus aureus (GC 1131): >64 µg/mL
Staphylococcus sp.; strain GC 3051
  MIC Staphylococcus aureus (GC 3051): >64 µg/mL
Staphylococcus sp.; strain GC 3053
  MIC Staphylococcus aureus (GC 3053): >64 µg/mL
Staphylococcus sp.; strain GC 4541
  MIC Staphylococcus aureus (GC 4541): >64 µg/mL
Staphylococcus sp.; strain GC 4542
  MIC Staphylococcus aureus (GC 4542): >64 µg/mL
Staphylococcus sp.; strain GC 4543
  MIC Staphylococcus aureus-SMITH (GC 4543): >64 µg/mL
Staphylococcus sp.; strain GC 4544
  MIC Staphylococcus aureus (GC 4544): >64 µg/mL
Staphylococcus sp.; strain GC 4545
  MIC Staphylococcus aureus (GC 4545): >64 µg/mL
Staphylococcus sp.; strain GC 4546
  MIC Staphylococcus haemolyticus (GC 4546): >64 µg/mL
Staphylococcus sp.; strain GC 4547
  MIC Coagulase Negative Staphylococcus (GC 4547): >64 µg/mL
Staphylococcus sp.; strain GC 4548
  MIC Coagulase Negative Staphylococcus (GC 4548): >64 µg/mL
Staphylococcus sp.; strain GC 4549
  MIC Coagulase Negative Staphylococcus (GC 4549): >64 µg/mL
Staphylococcus sp.; strain GC 4551
  MIC Coagulase Negative Staphylococcus (GC 4551): >64 µg/mL
Streptococcus sp.
  MIC Streptococcus agalactiae (GC 4564): >64 µg/mL
  MIC Streptococcus pneumoniae (ATCC 6301): >64 µg/mL
  MIC Streptococcus pneumoniae (GC 1894): >64 µg/mL
  MIC Streptococcus pneumoniae (GC 4565): >64 µg/mL
  MIC Streptococcus pyogenes (GC 4563): >64 µg/mL
Streptococcus sp.; strain ATCC 6301
  MIC Streptococcus pneumoniae (ATCC 6301): >64 µg/mL
Streptococcus sp.; strain GC 1894
  MIC Streptococcus pneumoniae (GC 1894): >64 µg/mL
Streptococcus sp.; strain GC 4563
  MIC Streptococcus pyogenes (GC 4563): >64 µg/mL
Streptococcus sp.; strain GC 4564
  MIC Streptococcus agalactiae (GC 4564): >64 µg/mL
Streptococcus sp.; strain GC 4565
  MIC Streptococcus pneumoniae (GC 4565): >64 µg/mL
Escherichia coli
  MIC Escherichia coli (ATCC 25922): >64 µg/mL
  MIC Escherichia coli (GC 4559): >64 µg/mL
  MIC Escherichia coli (GC 4560): 64 µg/mL (≈ 41 µM)

Source: patent US6914045B2, “Glycopeptide antibiotics” (Wyeth Holdings Corporation, priority 2001, dated 2005)
